Measured values: patent US6653529B2, “Use of the maize X112 mutant ahas 2 gene and imidazolinone herbicides for selection of transgenic monocots, maize, rice and wheat plants resistant to the imidazolinone herbicides” (BASF Aktiengesellschaft, priority 2000, dated 2003)
Where “and” joins values, the source holds several entries; their conditions need not be identical. Equal entries are not always repeated.

Experiments:
Format in all cases: in vivo
transgenic rice Line 26 = assay: Response of rice plants to various herbicides, seed set in greenhouse; settings: post-emergence, 1× g ai/ha: PURSUIT 62.5, CADRE 32, ARSENAL 24, RAPTOR 32, SCEPTER 125, ACCENT 35, CLASSIC 5, AC322,140 20, LONDAX 68
Excerpt: (§1) A total of 9 herbicides, 5 imidazolinones, two rice herbicides and ACCENT® (nicosulfuron) and CLASSIC® (clorimuron-ethyl) were applied in this study. Materials and methods were basically the same as described above, except that instead of 6″ pots, flats with 18 (3″×3″ per cell) cells were used, and 10-12 seeds were planted to one 3″×3″ cell. Ten plants were maintained in one cell in the post-emergence application. Each herbicide was sprayed at 4 different rates, 1, 2, 4, and 6×, as either pre or post-emergence applications with three replications per treatment. The name and amount of herbicide applied in this experiment and information relevant to their commercial applications are listed in Table 3. For simplicity and convenience, the lowest concentration used is referred as 1× rate, 2, 4 and 6× rates can be calculated as multiples of 1×.
(§2) To monitor plant response to various herbicides, data on fresh weight was collected. For pre-emergence applications, all plants from one cell were harvested 32 days after spraying (36-day old plants) and weighed. Twenty-nine days after herbicide application, 5 plants (44-day old plants) from each cell in the post-emergence application, were cut and weighed individually. Mean fresh weight for each treatment was calculated over three replications. The remaining 5 plants were grown in the greenhouse to maturity at which time, panicles of 3 plants were collected, and number of filled seeds and number of total kernels were counted to determine percentage of seed set.

transgenic rice Line 29 = assay: as above; settings: post-emergence, 1× g ai/ha: PURSUIT 62.5, CADRE 32, ARSENAL 24, RAPTOR 32, SCEPTER 125, ACCENT 35, CLASSIC 5, AC322,140 20, LONDAX 68
Excerpt: as §1, §2

[1] = test system: untransformed Nt rice plants; assay: as above; settings: post-emergence, 1× g ai/ha: PURSUIT 62.5, CADRE 32, ARSENAL 24, RAPTOR 32, SCEPTER 125, ACCENT 35, CLASSIC 5, AC322,140 20, LONDAX 68
Excerpt: as §1, §2

[2] = test system: 3395IR (homozygous XA17 imi-resistant corn line); assay: Greenhouse spray test of corn lines with imidazolinone herbicides, injury score; settings: for Score, individual plants (0 dead plants, 5 healthy plants with no injury): 16 days after treatment; for M.S.: score 0 (dead) to 5 (healthy), 16 days
Excerpt: (§3) Grow one corn plant per pot (5×5 inch) in a 3×5 flat till three- to four-leaf stage (about 9 to 13 days depending on the weather). On the day of spraying, water the plants well and let excess water drip out. Spray plants on a belt-sprayer with the imidazolinone herbicides at desired rates. […] When temperature was too high, base water plants to prevent wilting. Closely observe the plants for the next two to three weeks. Symptoms of herbicide injury will be visible three days after spraying and susceptible plants will die within two to three weeks depending on temperature.
(§4) The plants were rated on a scale of 0-5 with 0 for dead plants and 5 for healthy plants with no or minimum injury.
(§5) Two transgenic hybrids BAa-4 and MAa-7 lines (see FIG. 5 for their pedigree), a non-transformed control line B×A (B73×A188), 8962IT (heterozygous XI12 imi-tolerant corn line), 8962 (wild type control) and 3395IR (homozygous XA17 imi-resistant corn line) (8962IT and 8962 were from ICI, now Garst Seed Company, Slater, Iowa 50244, and 3395IR was from Pioneer Hi-Bred International Inc, Iowa 50306-3453). Plants were sprayed with 4, 8, 16 or 20×PURSUIT® imazethapyr, ARSENAL® imazapyr, CADRE® imazameth or RAPTOR® imazamox. Plants were scored 0 to 5 (with 0 being dead plants, 5 being healthy plants with no injury) individually 16 days after herbicide treatments. […] For the four tested imidazolinones, transgenic plants could tolerate higher rates of ARSENAL® imazapyr, PURSUIT® imazethapyr, than CADRE® imazameth and RAPTOR® imazamox.

[3] = test system: non-transformed control corn line BxA (B73×A188); assay: as above; settings: for Score, individual plants (0 dead plants, 5 healthy plants with no injury): 16 days after treatment; for M.S.: score 0 (dead) to 5 (healthy), 16 days
Excerpt: as §3, §4, §5

[4] = test system: transgenic corn hybrid BAa-4; assay: as above; settings: BAa-4; for Score, individual plants (0 dead plants, 5 healthy plants with no injury): 16 days after treatment; for M.S.: score 0 (dead) to 5 (healthy), 16 days
Excerpt: as §3, §4, §5

[5] = test system: transgenic corn hybrid MAa-7; assay: as above; settings: MAa-7; for Score, individual plants (0 dead plants, 5 healthy plants with no injury): 16 days after treatment; for M.S.: score 0 (dead) to 5 (healthy), 16 days
Excerpt: as §3, §4, §5

[6] = test system: 8692 (wild type control corn line); assay: as above; settings: for Score, individual plants (0 dead plants, 5 healthy plants with no injury): 16 days after treatment; for M.S.: score 0 (dead) to 5 (healthy), 16 days
[7] = 4×: PURSUIT 250, RAPTOR 160, ARSENAL 96, CADRE 400 g/ha
[8] = 8×: PURSUIT 500, RAPTOR 320, ARSENAL 192, CADRE 800 g/ha
[9] = 16×: RAPTOR 640 g/ha, ARSENAL 384 g/ha, CADRE 1.6 kg/ha

Structure (SMILES): CC(C)C1(C)N=C(c2ncccc2C(=O)O)NC1=O (stereo not drawn) [ARSENAL ®, imazapyr]
- % seed-set (transgenic rice Line 26; 1× rate): 85%
- No. filled seeds/3 panicles (transgenic rice Line 26; 1× rate): 156
- Total No. of kernels/3 panicles (transgenic rice Line 26; 1× rate): 183
- % seed-set (transgenic rice Line 26; 2× rate): 77%
- No. filled seeds/3 panicles (transgenic rice Line 26; 2× rate): 132
- Total No. of kernels/3 panicles (transgenic rice Line 26; 2× rate): 170
- % seed-set (transgenic rice Line 26; 4× rate): 6%
- No. filled seeds/3 panicles (transgenic rice Line 26; 4× rate): 10
- Total No. of kernels/3 panicles (transgenic rice Line 26; 4× rate): 170
- % seed-set (transgenic rice Line 26; 6× rate): 1%
- No. filled seeds/3 panicles (transgenic rice Line 26; 6× rate): 2
- Total No. of kernels/3 panicles (transgenic rice Line 26; 6× rate): 178
- % seed-set (transgenic rice Line 29; 1× rate): 90%
- No. filled seeds/3 panicles (transgenic rice Line 29; 1× rate): 122
- Total No. of kernels/3 panicles (transgenic rice Line 29; 1× rate): 137
- % seed-set (transgenic rice Line 29; 2× rate): 81%
- No. filled seeds/3 panicles (transgenic rice Line 29; 2× rate): 116
- Total No. of kernels/3 panicles (transgenic rice Line 29; 2× rate): 144
- % seed-set (transgenic rice Line 29; 4× rate): 26%
- No. filled seeds/3 panicles (transgenic rice Line 29; 4× rate): 41
- Total No. of kernels/3 panicles (transgenic rice Line 29; 4× rate): 179
- % seed-set (transgenic rice Line 29; 6× rate): 19%
- No. filled seeds/3 panicles (transgenic rice Line 29; 6× rate): 27
- Total No. of kernels/3 panicles (transgenic rice Line 29; 6× rate): 140
- % seed-set ([1]; 1× rate): 0%
- No. filled seeds/3 panicles ([1]; 1× rate): 0
- Total No. of kernels/3 panicles ([1]; 1× rate): 0
- % seed-set ([1]; 2× rate): 0%
- No. filled seeds/3 panicles ([1]; 2× rate): 0
- Total No. of kernels/3 panicles ([1]; 2× rate): 0
- % seed-set ([1]; 4× rate): 0%
- No. filled seeds/3 panicles ([1]; 4× rate): 0
- Total No. of kernels/3 panicles ([1]; 4× rate): 0
- % seed-set ([1]; 6× rate): 0%
- No. filled seeds/3 panicles ([1]; 6× rate): 0
- Total No. of kernels/3 panicles ([1]; 6× rate): 0
- Score, individual plants (0 dead plants, 5 healthy plants with no injury) [2, 7]: 5
- M.S. [2, 7]: 5
- Score, individual plants (0 dead plants, 5 healthy plants with no injury) [2, 8]: 5
- M.S. [2, 8]: 5
- Score, individual plants (0 dead plants, 5 healthy plants with no injury) [2, 9]: 4 and 5 (4×)
- M.S. [2, 9]: 4.8
- Score, individual plants (0 dead plants, 5 healthy plants with no injury) [3, 7]: 0
- M.S. [3, 7]: 0
- Score, individual plants (0 dead plants, 5 healthy plants with no injury) [3, 8]: 0
- M.S. [3, 8]: 0
- Score, individual plants (0 dead plants, 5 healthy plants with no injury) [3, 9]: 0
- M.S. [3, 9]: 0
- Score, individual plants (0 dead plants, 5 healthy plants with no injury) [4, 7]: 5
- M.S. [4, 7]: 5
- Score, individual plants (0 dead plants, 5 healthy plants with no injury) [4, 8]: 5
- M.S. [4, 8]: 5
- Score, individual plants (0 dead plants, 5 healthy plants with no injury) [4, 9]: 5 (2×) and 4 (3×)
- M.S. [4, 9]: 4.4
- Score, individual plants (0 dead plants, 5 healthy plants with no injury) [5, 7]: 5
- M.S. [5, 7]: 5
- Score, individual plants (0 dead plants, 5 healthy plants with no injury) [5, 8]: 5
- M.S. [5, 8]: 5
- Score, individual plants (0 dead plants, 5 healthy plants with no injury) [5, 9]: 5 (4×) and 4
- M.S. [5, 9]: 4.8
- Score, individual plants (0 dead plants, 5 healthy plants with no injury) [6, 7]: 0
- M.S. [6, 7]: 0
- Score, individual plants (0 dead plants, 5 healthy plants with no injury) [6, 8]: 0
- M.S. [6, 8]: 0
- Score, individual plants (0 dead plants, 5 healthy plants with no injury) [6, 9]: 0
- M.S. [6, 9]: 0
